Results from patent publication US10899733B2, “Inhibitors of PARPs that catalyze mono-ADP-ribosylation” (OREGON HEALTH & SCIENCE UNIVERSITY, priority 2017, dated 2021).
pIC50: −log10 of the molar value. Where two headings read alike, the source gives them in different places.

Key:
Assay in all cases: PARP panel: ADP-ribosylation of SRPK2 using 6-a-NAD+
Type in all cases: biochemical
[1] = molecular target: T1, PARP3 (Homo sapiens, UniProt Q9Y6F1)
T1 sequence (Q9Y6F1 1-533): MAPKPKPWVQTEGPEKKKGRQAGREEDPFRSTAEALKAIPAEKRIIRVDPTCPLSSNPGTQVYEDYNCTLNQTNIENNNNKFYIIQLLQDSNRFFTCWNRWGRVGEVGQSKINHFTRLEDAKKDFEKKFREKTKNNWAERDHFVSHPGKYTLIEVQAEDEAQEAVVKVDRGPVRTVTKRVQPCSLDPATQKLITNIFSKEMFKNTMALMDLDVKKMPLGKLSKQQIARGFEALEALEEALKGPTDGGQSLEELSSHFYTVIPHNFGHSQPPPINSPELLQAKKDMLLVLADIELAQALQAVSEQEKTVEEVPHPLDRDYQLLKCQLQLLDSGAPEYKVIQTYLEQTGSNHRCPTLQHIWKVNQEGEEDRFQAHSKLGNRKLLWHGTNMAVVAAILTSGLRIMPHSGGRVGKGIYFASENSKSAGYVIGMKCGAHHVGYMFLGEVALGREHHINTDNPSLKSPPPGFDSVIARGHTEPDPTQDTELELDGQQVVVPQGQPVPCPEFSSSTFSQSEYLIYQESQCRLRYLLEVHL
Excerpt: (§1) We screened 22 against poly-ADPr PARPs (PARPs 1, 2, and PARP5b) and mono-ADPr PARPs (PARPs 3, 4, 10, 11, 14, and 15) in an assay that measures ADP-ribosylation of SRPK2 using an N^6-alkyne tagged NAD^+ (6-a-NAD^+), a clickable NAD^+ analogue.{Jiang et al., 2010, J. Am. Chem. Soc. […] The observed selectivity is most likely due to the differences in the last position of the H-Y-E catalytic triad of these enzymes versus the H-Y-I triad found in PARP10. {Hottiger et al., 2010, Trends Biochem. Sci. 35, pp. 208-219} The glutamate (E988 in PARP1) in PARPs 1-4 and PARP 5b most likely clash with the pyridiny-4-yl group at the 6-position of 22, while PARP10 contains an isoleucine (1978) at this position that can accommodate this group (FIG. 1B).

[2] = molecular target: T2, PARP11 (Homo sapiens, UniProt Q9NR21)
T2 sequence (Q9NR21 1-338): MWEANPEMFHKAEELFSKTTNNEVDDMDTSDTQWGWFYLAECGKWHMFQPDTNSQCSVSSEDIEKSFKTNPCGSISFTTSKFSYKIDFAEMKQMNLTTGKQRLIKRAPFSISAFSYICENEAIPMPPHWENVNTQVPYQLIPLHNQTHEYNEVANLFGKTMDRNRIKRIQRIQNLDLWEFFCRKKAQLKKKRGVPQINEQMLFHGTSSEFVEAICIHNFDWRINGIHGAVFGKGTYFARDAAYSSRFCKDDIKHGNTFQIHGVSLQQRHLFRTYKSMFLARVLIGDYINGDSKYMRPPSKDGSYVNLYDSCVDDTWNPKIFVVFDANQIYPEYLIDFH
Excerpt: as §1

[3] = molecular target: PARP1 (Homo sapiens, UniProt P09874)
Chain of PARP1 (P09874 whole entry): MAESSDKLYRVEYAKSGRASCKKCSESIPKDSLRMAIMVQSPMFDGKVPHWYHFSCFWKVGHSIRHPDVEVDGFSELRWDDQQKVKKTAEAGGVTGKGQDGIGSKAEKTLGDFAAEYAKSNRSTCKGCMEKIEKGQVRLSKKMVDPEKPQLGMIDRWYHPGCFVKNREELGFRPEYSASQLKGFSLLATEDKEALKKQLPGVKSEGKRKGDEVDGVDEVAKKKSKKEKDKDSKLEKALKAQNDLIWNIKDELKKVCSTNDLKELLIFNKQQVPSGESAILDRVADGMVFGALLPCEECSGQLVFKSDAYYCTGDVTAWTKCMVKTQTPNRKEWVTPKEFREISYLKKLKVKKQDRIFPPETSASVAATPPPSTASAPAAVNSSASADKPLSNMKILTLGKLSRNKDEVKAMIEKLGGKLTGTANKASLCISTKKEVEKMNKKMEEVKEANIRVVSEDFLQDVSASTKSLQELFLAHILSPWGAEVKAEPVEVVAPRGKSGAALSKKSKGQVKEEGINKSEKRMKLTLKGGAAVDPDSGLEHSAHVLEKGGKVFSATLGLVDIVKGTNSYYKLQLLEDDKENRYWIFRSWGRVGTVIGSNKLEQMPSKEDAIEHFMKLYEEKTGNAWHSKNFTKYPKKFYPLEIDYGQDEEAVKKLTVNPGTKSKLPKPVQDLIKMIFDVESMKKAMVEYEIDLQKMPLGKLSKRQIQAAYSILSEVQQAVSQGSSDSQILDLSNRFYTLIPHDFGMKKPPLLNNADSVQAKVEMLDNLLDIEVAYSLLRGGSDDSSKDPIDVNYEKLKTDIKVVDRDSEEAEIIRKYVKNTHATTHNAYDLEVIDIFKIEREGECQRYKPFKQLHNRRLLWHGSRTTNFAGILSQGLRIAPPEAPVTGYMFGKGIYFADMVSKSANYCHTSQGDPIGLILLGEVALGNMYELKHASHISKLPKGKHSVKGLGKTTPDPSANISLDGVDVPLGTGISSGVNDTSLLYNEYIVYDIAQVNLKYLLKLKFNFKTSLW
Excerpt: as §1

[4] = molecular target: PARP2 (Homo sapiens, UniProt Q9UGN5)
Chain of PARP2 (Q9UGN5 whole entry): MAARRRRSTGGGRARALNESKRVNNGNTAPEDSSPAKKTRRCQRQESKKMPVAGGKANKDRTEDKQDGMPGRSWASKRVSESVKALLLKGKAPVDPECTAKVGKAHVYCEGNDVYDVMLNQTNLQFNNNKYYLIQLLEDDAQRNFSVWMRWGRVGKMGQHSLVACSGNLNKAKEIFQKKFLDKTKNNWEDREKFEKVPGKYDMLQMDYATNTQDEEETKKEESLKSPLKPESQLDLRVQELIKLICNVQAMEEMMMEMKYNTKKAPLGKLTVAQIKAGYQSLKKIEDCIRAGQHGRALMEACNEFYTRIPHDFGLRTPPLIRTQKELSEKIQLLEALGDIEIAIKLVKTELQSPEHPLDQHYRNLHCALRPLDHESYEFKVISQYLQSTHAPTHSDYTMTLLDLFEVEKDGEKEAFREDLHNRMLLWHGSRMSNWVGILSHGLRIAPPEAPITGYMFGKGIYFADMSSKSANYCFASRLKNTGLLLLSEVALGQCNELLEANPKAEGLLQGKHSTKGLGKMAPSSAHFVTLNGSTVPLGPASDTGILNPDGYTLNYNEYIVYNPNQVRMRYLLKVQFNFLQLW
Excerpt: as §1

[5] = molecular target: T3, PARP10cat (Homo sapiens, UniProt Q53GL7)
T3 sequence (Q53GL7 806-1025 limits assumed): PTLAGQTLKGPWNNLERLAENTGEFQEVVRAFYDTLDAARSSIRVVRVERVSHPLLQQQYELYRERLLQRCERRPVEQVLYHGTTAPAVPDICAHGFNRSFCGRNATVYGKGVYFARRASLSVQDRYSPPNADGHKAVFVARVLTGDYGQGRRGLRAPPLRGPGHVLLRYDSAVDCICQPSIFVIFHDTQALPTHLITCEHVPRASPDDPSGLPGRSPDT
Excerpt: as §1

[6] = molecular target: T4, PARP15cat (Homo sapiens, UniProt Q460N3)
T4 construct: PARP15cat
T4 sequence (Q460N3 482-678 limits assumed): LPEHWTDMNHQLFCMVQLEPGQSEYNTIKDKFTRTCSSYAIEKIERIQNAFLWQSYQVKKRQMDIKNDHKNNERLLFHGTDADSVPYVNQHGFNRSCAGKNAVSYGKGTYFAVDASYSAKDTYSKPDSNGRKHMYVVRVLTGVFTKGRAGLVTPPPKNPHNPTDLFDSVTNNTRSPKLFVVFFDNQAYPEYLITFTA
Excerpt: as §1

[7] = molecular target: T5, PARP8 (Homo sapiens, UniProt Q8N3A8)
T5 sequence (Q8N3A8 1-854): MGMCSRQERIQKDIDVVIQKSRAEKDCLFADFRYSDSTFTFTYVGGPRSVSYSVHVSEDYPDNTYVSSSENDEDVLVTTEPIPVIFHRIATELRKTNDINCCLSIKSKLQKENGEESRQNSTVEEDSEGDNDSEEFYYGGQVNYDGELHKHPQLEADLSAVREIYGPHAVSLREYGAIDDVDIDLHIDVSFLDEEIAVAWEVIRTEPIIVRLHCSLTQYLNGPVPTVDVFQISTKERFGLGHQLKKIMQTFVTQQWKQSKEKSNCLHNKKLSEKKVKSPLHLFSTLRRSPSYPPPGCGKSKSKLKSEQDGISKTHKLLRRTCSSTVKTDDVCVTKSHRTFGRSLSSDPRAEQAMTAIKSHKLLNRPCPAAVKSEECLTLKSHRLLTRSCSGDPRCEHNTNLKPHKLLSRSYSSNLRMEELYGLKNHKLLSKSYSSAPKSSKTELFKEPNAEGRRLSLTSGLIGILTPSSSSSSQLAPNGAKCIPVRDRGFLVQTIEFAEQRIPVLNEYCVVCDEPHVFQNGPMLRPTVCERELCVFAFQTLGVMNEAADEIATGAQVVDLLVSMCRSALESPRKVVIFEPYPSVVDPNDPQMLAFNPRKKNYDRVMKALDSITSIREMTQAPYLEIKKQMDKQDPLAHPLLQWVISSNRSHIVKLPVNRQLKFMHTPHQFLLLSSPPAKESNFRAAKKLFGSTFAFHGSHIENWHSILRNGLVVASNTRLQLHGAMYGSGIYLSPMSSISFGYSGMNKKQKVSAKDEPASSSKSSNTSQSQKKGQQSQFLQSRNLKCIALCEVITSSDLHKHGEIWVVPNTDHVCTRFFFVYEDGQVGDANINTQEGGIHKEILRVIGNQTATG

Cc1c(-c2ccnc(C(F)(F)F)c2)ccc2c1CCNC2=O [Compound 22, 5-methyl-6-(2-(trifluoromethyl)pyridin-4-yl)-3,4-dihydroisoquinolin-1(2H)-one]
pIC50 ([1]; 6-a-NAD+): < 4.00
PARP/PARP10 ([1]; PARP3 over PARP10cat): >>37
inhibition of PARP3 ([1]; up to 100 μM): does not inhibit
pIC50 ([2]; 6-a-NAD+): 4.20
PARP/PARP10 ([2]; PARP11 over PARP10cat): 23
pIC50 ([3]; 6-a-NAD+): < 4.00
PARP/PARP10 ([3]; PARP1 over PARP10cat): >>37
inhibition of PARP1 ([3]; up to 100 μM): does not inhibit
pIC50 ([4]; 6-a-NAD+): < 4.00
PARP/PARP10 ([4]; PARP2 over PARP10cat): >37
inhibition of PARP2 ([4]; up to 100 μM): does not inhibit
selectivity for PARP10 over PARPs 1-4 and PARP 5b ([5]; 6-a-NAD+): greater than 37 fold
pIC50 ([5]; 6-a-NAD+, read-out: PARP10cat IC50): 5.57
IC50 ([5]; 6-a-NAD+, read-out: PARP10cat pIC50 ± S.E.M. (converted)): 2.75 µM
PARP/PARP10 ([5]; PARP10cat over PARP10cat): 1
pIC50 ([6]; 6-a-NAD+): 4.20
PARP15cat pIC50 ± S.E.M. ([6]; 6-a-NAD+): 4.20 ± 0.05
PARP/PARP10 ([6]; PARP15cat over PARP10cat): 23
pIC50 ([7]; 6-a-NAD+): < 4.52
PARP/PARP10 ([7]; PARP8 over PARP10cat): >10
